Measured values from patent publication US5567704A, “R-enatiomerically pure hydroxylated xanthine compounds to treat baldness” (priority 1995, dated 1996).

Key:
smooth muscle cell = test: smooth muscle proliferation stimulated by PDGF and IL-1; type: cell-based
Text: CT1501R and PTX were separately added to the cells two hours prior to activation with PDGF and IL-1.

[1] = system: TNF-α release from LPS stimulated PEC cells; test: TNF-α release from LPS stimulated PEC macrophages (ELISA); type: cell-based, murine; details: Mus musculus, Macrophage
Method: Murine peritoneal exudate cell macrophages (PEC) were isolated by perfusion of mouse peritoneum and plated into 96-well trays at 5×10^5 cells per well. […] At various times thereafter, supernatants were removed and levels of either TNF-α or IL-1α were assayed using commercial 96-well microtiter immunoassay kits (Genzyme; TNF; Endogen, Boston, Mass.; IL-1α) according to manufacturer's specifications. […] 4000 cells were plated into each well of a 96-well microtiter plate and allowed to incubate for 72 hrs at 37° C. […] Either the HUVEC or U937 cells were stimulated with either LPS, IL-1α or TNF-α for 12 hrs. For the adhesion assay, U937 cells were labeled with the fluorescent viability stain, 2',7'-bis-(2-carboxyethyl)-5-(and-6)-carboxyfluorescein acetoxymethyl ester (BCECF). […] The cells were washed once with full media and 50,000 cells/well added to the HUVEC cultures. The samples were incubated at 37° C. for 30 min, inverted and centrifuged for 10 min at 400× g. After addition of […] Hanks Balanced Salt Solution (HBSS), the microtiter plate was then analyzed on a Millipore Cytofluor fluorescent plate reader (excitation 488 nm; emission 525 nm).
Cells were pretreated with […] CT1501R and supernatants assayed by ELISA for released TNF-α as a function of time following LPS stimulation. […]

HUVEC = test: adhesion of U937 cells to activated HUVEC; type: cell-based, human; details: 250 μM, FIG. 21
Method: Murine peritoneal exudate cell macrophages (PEC) were isolated by perfusion of mouse peritoneum and plated into 96-well trays at 5×10^5 cells per well. Cells were stimulated with 5 μg/ml Salmonella abortus equi -derived endotoxin (LPS; Sigma Chemical Co., L-1887) or […] IL-1α (Genzyme; Cambridge, Mass.) with or without the addition of CT1501R added to the cultures one hour prior to addition of the stimulus. At various times thereafter, supernatants were removed and levels of either TNF-α or IL-1α were assayed using commercial 96-well microtiter immunoassay kits (Genzyme; TNF; Endogen, Boston, Mass.; IL-1α) according to manufacturer's specifications. For the adhesion studies, early passage human umbilical vein endothelial cells (HUVEC) were obtained. from commercial suppliers (Clonetics, San Diego, Calif. or Cell Systems, Seattle, Wash.) and cultured in defined, Hepes buffered, serum free medium (Cell Systems, cat 301-180) supplemented with acidic FGF (Cell Systems cat 401-111). 4000 cells were plated into each well of a 96-well microtiter plate and allowed to incubate for 72 hrs at 37° C. […] After addition of […] Hanks Balanced Salt Solution (HBSS), the microtiter plate was then analyzed on a Millipore Cytofluor fluorescent plate reader (excitation 488 nm; emission 525 nm). […]

IL-1α = test: mouse plasma IL-1α ELISA after endotoxin; type: in vivo; details: for Plasma IL-1: LPS + CT-1501R
Method: For ELISA measurements of cytokine levels in plasma, blood was collected by retro-orbital or cardiac puncture of anesthetized mice, immediately centrifuged and the EDTA plasma stored at -70° C. Particulate free plasma was thawed on ice and cytokine levels determined utilizing commercial ELISA assays with normal mouse plasma used to generate standard curves. Murine tumor necrosis factor-α and interleukin-1αkits were purchased from Genzyme (Cambridge, Mass.) and Endogen (Boston, Mass.), respectively. Each data point was an average of two ELISA measurements made from EDTA […] pooled from three mice. The data summarized in Table 3 were compiled from two independent experiments; data from Table 4 and 5 were from single experiments of three mice per data point.
In particular, peak levels observed at 6, 12 and 18 hours post endotoxin were decreased 1.2, 4.3 and 3.2-fold, respectively. Finally, IL-6 measurements were made in a similar manner (Table 6, FIG. 8).

C[C@@H](O)CCCCn1c(=O)c2c(ncn2C)n(C)c1=O [CT1501R, (R)-1-(5-hydroxyhexyl)-3,7-dimethylxanthine]
activity compared with PTX, smooth muscle cell proliferation (smooth muscle cell; PDGF and IL-1, FIG. 4): more active than PTX | inhibition of smooth muscle cell proliferation (smooth muscle cell; PDGF and IL-1, drug added two hours prior, FIG. 4): inhibited smooth muscle cell proliferation at the higher doses tested | IC50 ([1]; LPS stimulated PEC, drug 1 hour before LPS, FIG. 18, read-out: concentration for 50% inhibition of TNF-α release (IC50)): ~30 µM | inhibition at 500 µM ([1]; at 500 μM, read-out: inhibitory effects, % of the maximal LPS stimulation (1428 pg/ml)): ~40% | adhesiveness of activated HUVEC for U937 cells (HUVEC; 1 hour prior to TNF-α, IL-1α or LPS): marked suppression in the relative adhesiveness of the activated HUVEC | background attachment of U937 cells to HUVEC (HUVEC; non-activated HUVEC): no significant effect on background attachment of U937 cells to HUVEC | fold decrease of plasma IL-1α (IL-1α; 6 hours post endotoxin): 1.2 fold | fold decrease of plasma IL-1α (IL-1α; 12 hours post endotoxin): 4.3 fold | fold decrease of plasma IL-1α (IL-1α; 18 hours post endotoxin): 3.2 fold | Plasma IL-1 (IL-1α; 0 hours post LPS): 0 pg/mL | Plasma IL-1 (IL-1α; 0.17 hours post LPS): 0 pg/mL | Plasma IL-1 (IL-1α; 0.5 hours post LPS): 22 pg/mL | Plasma IL-1 (IL-1α; 1 hour post LPS): 10.8 pg/mL | Plasma IL-1 (IL-1α; 3 hours post LPS): 33.2 pg/mL | Plasma IL-1 (IL-1α; 6 hours post LPS): 133 pg/mL | Plasma IL-1 (IL-1α; 12 hours post LPS): 32.3 pg/mL | Plasma IL-1 (IL-1α; 18 hours post LPS): 46.7 pg/mL | Plasma IL-1 (IL-1α; 24 hours post LPS): 43.5 pg/mL | Plasma IL-1 (IL-1α; 36 hours post LPS): 18.8 pg/mL | Plasma IL-1 (IL-1α; 48 hours post LPS): 0 pg/mL
